Results: ChEMBL document CHEMBL3885861, “Open TG-GATES”

Species on record: Rattus norvegicus
Experiment: Open TG-GATES - Regimen: Daily Repeat
Format: toxicity, organism-based, Sprague-Dawley
Set-up: regimen Daily Repeat, gender Male, age 6 weeks
Conditions: in vivo, po, 50 mg/kg, route gavage, dose level High; for APTT / Bas / Eos / Fbg / Hb / Ht / Lym / MCH / MCHC / MCV / Mono / Neu / PT / Plat / RBC / Ret / WBC: tissue Blood; for LIVER: tissue Liver; for A/G / ALP / ALT / AST / BUN / CRE / Ca / Cl / DBIL / GLC / IP / K / LDH / Na / PL / RALB / TBIL / TC / TG / TP / gamma-GTP: tissue Plasma

C=C(C)[C@H]1Cc2c(ccc3c2O[C@@H]2COc4cc(OC)c(OC)cc4[C@@H]2C3=O)O1 [ROTENONE]
TERMINAL_BW (72 h, time 3 day): 199.2 g
APTT (72 h, time 3 day): 16.3 s
Bas (72 h, time 3 day): 0%
Eos (72 h, time 3 day): 0.8%
Fbg (72 h, time 3 day): 198.6 mg/dL
Hb (72 h, time 3 day): 13.7 g/dL
Ht (72 h, time 3 day): 41.6%
Lym (72 h, time 3 day): 72.4%
MCH (72 h, time 3 day): 21 pg
MCHC (72 h, time 3 day): 32.9%
MCV (72 h, time 3 day): 64 fL
Mono (72 h, time 3 day): 8%
Neu (72 h, time 3 day): 18.8%
PT (72 h, time 3 day): 12.2 s
Plat (72 h, time 3 day): 126.4 x10_4/uL
RBC (72 h, time 3 day): 649.4 x10_4/ul
Ret (72 h, time 3 day): 3.3%
WBC (72 h, time 3 day): 91.2 x10_2/uL
LIVER (72 h, time 3 day): 9.9 g
A/G (72 h, time 3 day): 2.4
ALP (72 h, time 3 day): 1100.4 IU/L
ALT (72 h, time 3 day): 25.4 IU/L
AST (72 h, time 3 day): 65.4 IU/L
BUN (72 h, time 3 day): 16 mg/dL
CRE (72 h, time 3 day): 0.4 mg/dL
Ca (72 h, time 3 day): 11.8 mg/dL
Cl (72 h, time 3 day): 106.6 meq/L
DBIL (72 h, time 3 day): 0.01 mg/dL
GLC (72 h, time 3 day): 191.2 mg/dL
IP (72 h, time 3 day): 7.5 mg/dL
K (72 h, time 3 day): 4.2 meq/L
LDH (72 h, time 3 day): 93.8 IU/L
Na (72 h, time 3 day): 142.8 meq/L
PL (72 h, time 3 day): 136.4 mg/dL
RALB (72 h, time 3 day): 3.9 g/dL
TBIL (72 h, time 3 day): 0.034 mg/dL
TC (72 h, time 3 day): 82.6 mg/dL
TG (72 h, time 3 day): 52.6 mg/dL
TP (72 h, time 3 day): 5.5 g/dL
gamma-GTP (72 h, time 3 day): 0.8 IU/L
TERMINAL_BW ([…], time 7 day): 230.8 g
TERMINAL_BW ([…], time 14 day): 251.7 g
TERMINAL_BW ([…], time 28 day): 288.8 g
APTT ([…], time 7 day): 16.5 s
Bas ([…], time 7 day): 0%
Eos ([…], time 7 day): 0.6%
Fbg ([…], time 7 day): 196.4 mg/dL
Hb ([…], time 7 day): 13.5 g/dL
Ht ([…], time 7 day): 41.1%
Lym ([…], time 7 day): 74.8%
MCH ([…], time 7 day): 21 pg
MCHC ([…], time 7 day): 32.9%
MCV ([…], time 7 day): 63.9 fL
Mono ([…], time 7 day): 6%
Neu ([…], time 7 day): 18.6%
PT ([…], time 7 day): 12 s
Plat ([…], time 7 day): 117.6 x10_4/uL
RBC ([…], time 7 day): 643.6 x10_4/ul
Ret ([…], time 7 day): 4.2%
WBC ([…], time 7 day): 95.8 x10_2/uL
APTT ([…], time 14 day): 16.5 s
Bas ([…], time 14 day): 0%
Eos ([…], time 14 day): 0.8%
Fbg ([…], time 14 day): 190.2 mg/dL
Hb ([…], time 14 day): 14.7 g/dL
Ht ([…], time 14 day): 44.3%
Lym ([…], time 14 day): 69.4%
MCH ([…], time 14 day): 20 pg
MCHC ([…], time 14 day): 33.1%
MCV ([…], time 14 day): 60.5 fL
Mono ([…], time 14 day): 7.4%
Neu ([…], time 14 day): 22.4%
PT ([…], time 14 day): 12.6 s
Plat ([…], time 14 day): 128.2 x10_4/uL
RBC ([…], time 14 day): 733.8 x10_4/ul
Ret ([…], time 14 day): 3.6%
WBC ([…], time 14 day): 98.4 x10_2/uL
APTT ([…], time 28 day): 19.4 s
Bas ([…], time 28 day): 0%
Eos ([…], time 28 day): 0.6%
Fbg ([…], time 28 day): 163.2 mg/dL
Hb ([…], time 28 day): 16 g/dL
Ht ([…], time 28 day): 48.6%
Lym ([…], time 28 day): 80%
MCH ([…], time 28 day): 18.8 pg
MCHC ([…], time 28 day): 33%
MCV ([…], time 28 day): 56.9 fL
Mono ([…], time 28 day): 4.2%
Neu ([…], time 28 day): 15%
PT ([…], time 28 day): 14.2 s
Plat ([…], time 28 day): 117.8 x10_4/uL
RBC ([…], time 28 day): 859 x10_4/ul
Ret ([…], time 28 day): 1.5%
WBC ([…], time 28 day): 88.4 x10_2/uL
LIVER ([…], time 7 day): 12.9 g
LIVER ([…], time 14 day): 13.1 g
LIVER ([…], time 28 day): 12 g
A/G ([…], time 7 day): 2.2
ALP ([…], time 7 day): 1181.6 IU/L
ALT ([…], time 7 day): 26.2 IU/L
AST ([…], time 7 day): 65.8 IU/L
BUN ([…], time 7 day): 18 mg/dL
CRE ([…], time 7 day): 0.4 mg/dL
Ca ([…], time 7 day): 11.7 mg/dL
Cl ([…], time 7 day): 104 meq/L
DBIL ([…], time 7 day): 0.014 mg/dL
GLC ([…], time 7 day): 198.6 mg/dL
IP ([…], time 7 day): 6.4 mg/dL
K ([…], time 7 day): 4.2 meq/L
LDH ([…], time 7 day): 103.6 IU/L
Na ([…], time 7 day): 141 meq/L
PL ([…], time 7 day): 137.4 mg/dL
RALB ([…], time 7 day): 4 g/dL
TBIL ([…], time 7 day): 0.022 mg/dL
TC ([…], time 7 day): 73 mg/dL
TG ([…], time 7 day): 80 mg/dL
TP ([…], time 7 day): 5.8 g/dL
gamma-GTP ([…], time 7 day): 0.8 IU/L
A/G ([…], time 14 day): 2.4
ALP ([…], time 14 day): 1140.4 IU/L
ALT ([…], time 14 day): 43.2 IU/L
AST ([…], time 14 day): 101.8 IU/L
BUN ([…], time 14 day): 22.4 mg/dL
CRE ([…], time 14 day): 0.4 mg/dL
Ca ([…], time 14 day): 11.5 mg/dL
Cl ([…], time 14 day): 105.2 meq/L
DBIL ([…], time 14 day): 0.014 mg/dL
GLC ([…], time 14 day): 178.8 mg/dL
IP ([…], time 14 day): 7.4 mg/dL
K ([…], time 14 day): 4.3 meq/L
LDH ([…], time 14 day): 108.4 IU/L
Na ([…], time 14 day): 140.6 meq/L
PL ([…], time 14 day): 145.8 mg/dL
RALB ([…], time 14 day): 3.9 g/dL
TBIL ([…], time 14 day): 0.032 mg/dL
TC ([…], time 14 day): 68.4 mg/dL
TG ([…], time 14 day): 121.2 mg/dL
TP ([…], time 14 day): 5.6 g/dL
gamma-GTP ([…], time 14 day): 1 IU/L
A/G ([…], time 28 day): 2.2
ALP ([…], time 28 day): 639.6 IU/L
ALT ([…], time 28 day): 20.2 IU/L
AST ([…], time 28 day): 53 IU/L
BUN ([…], time 28 day): 20.8 mg/dL
CRE ([…], time 28 day): 0.4 mg/dL
Ca ([…], time 28 day): 10.6 mg/dL
Cl ([…], time 28 day): 107 meq/L
DBIL ([…], time 28 day): 0.01 mg/dL
GLC ([…], time 28 day): 188.2 mg/dL
IP ([…], time 28 day): 5.9 mg/dL
K ([…], time 28 day): 4.4 meq/L
LDH ([…], time 28 day): 79 IU/L
Na ([…], time 28 day): 142.8 meq/L
PL ([…], time 28 day): 122.4 mg/dL
RALB ([…], time 28 day): 3.9 g/dL
TBIL ([…], time 28 day): 0.038 mg/dL
TC ([…], time 28 day): 67.6 mg/dL
TG ([…], time 28 day): 65.2 mg/dL
TP ([…], time 28 day): 5.8 g/dL
gamma-GTP ([…], time 28 day): 1 IU/L
